Experimental data as given in BindingDB's records for doi:10.7270/Q2639NCQ (The Scripps Research Institute Molecular Screening Center, 2013).

Molecular target: T1, Mitochondrial peptide methionine sulfoxide reductase (Bos taurus, UniProt P54149)
T1 sequence (P54149 whole entry): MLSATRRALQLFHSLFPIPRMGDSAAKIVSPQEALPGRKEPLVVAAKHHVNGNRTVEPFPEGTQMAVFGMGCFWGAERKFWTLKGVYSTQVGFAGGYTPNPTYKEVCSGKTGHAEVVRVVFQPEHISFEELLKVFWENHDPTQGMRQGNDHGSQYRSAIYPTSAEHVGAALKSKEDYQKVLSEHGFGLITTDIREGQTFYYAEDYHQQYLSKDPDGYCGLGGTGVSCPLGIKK

IC50, > 155 µM:
CCOc1cc(S(=O)(=O)N(CC)CC)c(OCC)cc1-n1cnnn1 [2,5-diethoxy-N,N-diethyl-4-(1,2,3,4-tetrazol-1-yl)benzenesulfonamide]
CC(Nc1cc(N2CCN(S(C)(=O)=O)CC2)ccc1[N+](=O)[O-])c1ccccc1 (stereo unspecified) [5-[4-(methylsulfonyl)-1-piperazinyl]-2-nitro-N-(1-phenylethyl)aniline]
O=C1N=C(N2C=CC(c3ccncc3)C=C2)C(=CN=NC(=O)c2ccccc2)S1
O=C(NC=NOCc1ccc(Cl)cc1Cl)NOCc1ncc(C(F)(F)F)cc1Cl [1-[[3-chloro-5-(trifluoromethyl)-2-pyridinyl]methoxy]-3-[[(2,4-dichlorophenyl)methoxyamino]methylidene]urea]
CCOC(=O)c1cc2c(ccc3ccccc32)oc1=O [3-oxo-2-benzo[f][1]benzopyrancarboxylic acid ethyl ester]
COc1ccc(-c2cc(C(F)F)n3ncc(C(=O)n4ccnc4C)c3n2)cc1 [MLS000581677]
Cc1ccc(C)n1-n1c(C)nc2scc(-c3ccccc3)c2c1=O [MLS000564386]
C#Cc1cccc(Nc2nc(NCc3ccccc3OC)nc3ccsc23)c1 [MLS003123009]
c1cnn(-c2cncc(-n3cccn3)n2)c1 [2,6-bis(1-pyrazolyl)pyrazine]
N#CC(C=Nc1ccccc1O)c1nc2ccccc2o1 (stereo unspecified) [SMR000171441]
COc1ccc(NC(=O)COC(=O)C2CCCCC2)c([N+](=O)[O-])c1 [SMR000261453]
O=C(O)c1cccc(NS(=O)(=O)c2ccc3c(c2)C(=O)c2ccccc2C3=O)c1 [3-[[9,10-bis(oxidanylidene)anthracen-2-yl]sulfonylamino]benzoic acid]
CCOC(=O)N/N=C1/c2ccccc2-c2nc3nonc3nc21 [SMR000305141]
Cc1ccc(Nc2[nH]nc(C)c2[N+](=O)[O-])c(C)c1 [MLS000700556]
Nc1nnc(CC(=O)N/N=C/c2ccc(-c3ccccc3)o2)s1
Cc1ccc(CC2(C)C(=O)Nc3ccc(OC(F)(F)F)cc32)cc1 (stereo unspecified) [SMR001453901]
C#Cc1cccc(Nc2nc(NCCOC)nc3ccsc23)c1 [4-N-(3-ethynylphenyl)-2-N-(2-methoxyethyl)thieno[3,2-d]pyrimidine-2,4-diamine]
CCOC(=O)C1CCCN(C(=O)c2cnn3c(C(F)F)cc(-c4ccc(C)cc4)nc23)C1 (stereo unspecified) [1-[7-(difluoromethyl)-5-(p-tolyl)pyrazolo[1,5-a]pyrimidine-3-carbonyl]nipecotic acid ethyl ester]
CCOc1ccc(N(C)S(=O)(=O)c2cc(-c3cc(C)no3)ccc2C(C)C)cc1 [N-(4-ethoxyphenyl)-N-methyl-5-(3-methyl-1,2-oxazol-5-yl)-2-propan-2-yl-benzenesulfonamide]
O=C(O)c1cc(O)c2c(c1)C(=O)c1cccc(O)c1C2=O [RHEIN]
CCOC(=O)C1CCN(C(=O)c2c(C)oc3c2C(=O)c2ccccc2C3=O)CC1
CCC(C)c1ccccc1NC(=O)COC(=O)C1=NN(c2ccccc2)C(=O)CC1 (stereo unspecified) [6-oxo-1-phenyl-4,5-dihydropyridazine-3-carboxylic acid [2-(2-butan-2-ylanilino)-2-oxoethyl] ester]
c1ccc2c(c1)nc(N1CCOCC1)c1nnnn12 [4-(4-tetrazolo[1,5-a]quinoxalinyl)morpholine]
O=C1C(Cl)=C(NCCCN2CCOCC2)C(=O)N1CCc1ccccc1 [3-chloro-4-{[3-(4-morpholinyl)propyl]amino}-1-(2-phenylethyl)-1H-pyrrole-2,5-dione]
Cc1nn(Cc2ccc(Cl)cc2)c(=O)n1N(C)c1ncc(C(F)(F)F)cc1Cl [MLS000541367]
CC1(C)C2CCC(CN=C(N)CSS(=O)(=O)O)C1C2 (stereo unspecified) [SMR001821892]
